The record followed here is paper PMC6544370 (Nature, 2019).

One assay deals with T1, Rm-CdnE (Rhodothermus marinus, UniProt G2SLH8).
T1 sequence (G2SLH8 1-288): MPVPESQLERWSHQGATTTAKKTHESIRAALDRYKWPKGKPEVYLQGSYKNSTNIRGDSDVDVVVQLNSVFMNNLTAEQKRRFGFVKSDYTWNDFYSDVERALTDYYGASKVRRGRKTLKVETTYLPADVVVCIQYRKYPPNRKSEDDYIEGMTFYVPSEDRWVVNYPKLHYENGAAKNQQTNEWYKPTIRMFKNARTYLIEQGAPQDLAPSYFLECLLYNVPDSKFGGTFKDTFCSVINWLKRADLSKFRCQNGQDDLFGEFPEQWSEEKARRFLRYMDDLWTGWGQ
The experiment in a line: X-ray crystal structure. The assay is classed as binding. The conditions noted are these: with Upnpp and MgCl2; nonhydrolyzable substrate analogue.

A further assay concerns the target T2, Em-CdnE (Elizabethkingia meningoseptica, UniProt P0DSP2).
T2 sequence (P0DSP2 1-292): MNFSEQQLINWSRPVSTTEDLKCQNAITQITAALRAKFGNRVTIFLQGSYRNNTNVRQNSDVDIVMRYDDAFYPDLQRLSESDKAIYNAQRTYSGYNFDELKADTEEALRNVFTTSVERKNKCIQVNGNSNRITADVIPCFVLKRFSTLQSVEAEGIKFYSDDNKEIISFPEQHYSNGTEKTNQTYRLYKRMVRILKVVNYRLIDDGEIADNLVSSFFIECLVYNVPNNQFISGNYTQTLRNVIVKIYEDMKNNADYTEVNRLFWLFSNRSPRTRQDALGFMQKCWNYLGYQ
Kind of assay: X-ray crystal structure. The assay is classed as binding.

The target of another assay is Ec-CdnD02 (CD-NTase038) (Enterobacter hormaechei, UniProt P0DSP4). To be noted: with GTP; pH 9.4, 5 mM Mg(OAc)2, 37 °C; product cAAG.
For assay [1], the target named is T3, STING (Stimulator of Interferon Genes) (Mus musculus, UniProt Q3TBT3).
T3 sequence (Q3TBT3 139-378 limits assumed): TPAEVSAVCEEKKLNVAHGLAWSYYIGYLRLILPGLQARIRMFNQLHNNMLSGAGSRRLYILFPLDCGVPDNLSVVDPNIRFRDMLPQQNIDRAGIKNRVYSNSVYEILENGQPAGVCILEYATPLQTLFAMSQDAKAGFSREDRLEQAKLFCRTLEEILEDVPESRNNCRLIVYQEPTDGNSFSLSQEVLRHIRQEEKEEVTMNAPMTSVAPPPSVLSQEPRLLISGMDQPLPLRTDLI
The experiment in a line: native PAGE gel shift. The conditions noted are these: pH 7.5, 60 mM KCl, 5 mM Mg(OAc)2; labelled compound; 4-100 μM protein. In kind it is binding.

Ec-CdnD02 (CD-NTase038), sequence (P0DSP4 whole entry): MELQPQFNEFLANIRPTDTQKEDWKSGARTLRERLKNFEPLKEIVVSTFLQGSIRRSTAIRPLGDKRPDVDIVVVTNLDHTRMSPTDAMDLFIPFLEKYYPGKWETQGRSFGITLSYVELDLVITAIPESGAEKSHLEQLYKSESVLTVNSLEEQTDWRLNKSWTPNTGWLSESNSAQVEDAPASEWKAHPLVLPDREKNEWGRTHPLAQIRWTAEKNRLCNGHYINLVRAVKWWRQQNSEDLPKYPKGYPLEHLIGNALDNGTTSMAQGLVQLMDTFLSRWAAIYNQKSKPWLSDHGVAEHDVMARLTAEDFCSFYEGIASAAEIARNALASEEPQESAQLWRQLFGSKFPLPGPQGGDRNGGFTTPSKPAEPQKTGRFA

On to `Nc1ncnc2c1ncn2[C@@H]1O[C@H](COP(=O)(O)CP(=O)(O)OP(=O)(O)O)[C@@H](O)[C@H]1O` [Apcpp], for which the X-ray crystal structure entry at Rm-CdnE was “structure of Rm-CdnE in complex with nonhydrolyzable ATP and UTP”; on Em-CdnE (with GTP and Mg2+, nonhydrolyzable substrate analogue), “Crystal structure of Em-CdnE in complex with GTP and nonhydrolyzable ATP”.

In the case of `Nc1ncnc2c1ncn2[C@@H]1O[C@H](COP(=O)(O)OP(=O)(O)OP(=O)(O)O)[C@@H](O)[C@H]1O` [ATP], the “radiolabelled NTP, silica TLC” value at Ec-CdnD02 (CD-NTase038) was “ATP and GTP were necessary and sufficient for product formation”.

With `Nc1nc2c(ncn2[C@@H]2O[C@H](COP(=O)(O)OP(=O)(O)OP(=O)(O)O)[C@@H](O)[C@H]2O)c(=O)[nH]1` [GTP], at Em-CdnE (with Apcpp and Mg2+), the X-ray crystal structure result is “Crystal structure of Em-CdnE in complex with GTP and nonhydrolyzable ATP”.

In the case of `Nc1nc2c(ncn2[C@@H]2O[C@@H]3COP(=O)(O)O[C@H]4[C@@H](O)[C@H](n5cnc6c(=O)[nH]c(N)nc65)O[C@@H]4COP(=O)(O)O[C@H]3[C@H]2O)c(=O)[nH]1` [c-di-GMP], in assay [1], the “native PAGE gel shift” value is “STING bound to all four cyclic dipurine molecules with high affinity”.

Regarding `Nc1nc2c(ncn2[C@@H]2O[C@@H]3COP(=O)(O)O[C@H]4[C@@H](O)[C@H](n5cnc6c(N)ncnc65)O[C@@H]4COP(=O)(O)O[C@H]3[C@H]2O)c(=O)[nH]1` [3′3′ cGAMP], the “native PAGE gel shift” value in assay [1] is reported as “STING bound to all four cyclic dipurine molecules with high affinity”.
